Results taken from publication PMC7692337, “Masked Phenolic-Selenium Conjugates: Potent and Selective Antiproliferative Agents Overcoming P-gp Resistance” (Pharmaceuticals, 2020).

Tested on: WiDr (colon)
Assay: Antiproliferative activity, NCI protocol
Type: cell-based, human
Details: Homo sapiens, WiDr; drug resistant line; read-out: GI50 WiDr (Colon)
Procedure: (§1) Organochalcogen derivatives prepared herein were evaluated in vitro as potential antiproliferative agents, using a panel of six human tumour cell lines: A549 (non-small cell lung), HBL-100 (breast), HeLa (cervix), SW1573 (non-small cell lung), as drug sensitive lines, T-47D (breast) and WiDr (colon) as drug resistant lines. In addition to precursors 2, 6, 7, 13, 14, 17, 19, ebselen and cisplatin (CDDP) were used as reference drugs. […] In both cases, the NCI protocol, with minor modifications, was followed; selected data, including the selectivity index (S.I.) can be found in Table 3 and full data in Supporting Information (Table S1).
(§2) The in vitro antiproliferative activity was assayed using minor modifications of the protocol of the National Cancer Institute (NCI) of the United States against the six human solid tumor cell and the non-tumor cell lines tested.

SMILES | GI50 [µM]
O=C(CCCSSCCCC(=O)NCCc1ccc(O)c(O)c1)NCCc1ccc(O)c(O)c1 [Compound 10] | > 100
O=C(CCC[Se][Se]CCCC(=O)NCCc1ccc(O)c(O)c1)NCCc1ccc(O)c(O)c1 [Compound 16, 4,4′-Diselenobis{N-[2′’-(3′’’,4′’’-dihydroxyphenyl)ethyl]butanamide}] | 3.9 ± 0.6
N#C[Se]Cc1ccc2c(c1)OCO2 [Compound 35, (3′,4′-Methylenedioxyphenyl)methyl selenocyanate] | 2 ± 0.1

Tested on: SW1573 (non-small cell lung)
Assay: Antiproliferative activity, NCI protocol
Type: cell-based, human
Details: Homo sapiens, SW1573; Table S1; read-out: GI50 SW1573 (Lung)
Procedure: as §1, §2

SMILES | GI50 [µM]
O=C(CCCSSCCCC(=O)NCCc1ccc(O)c(O)c1)NCCc1ccc(O)c(O)c1 [Compound 10] | > 100
O=C(CCC[Se][Se]CCCC(=O)NCCc1ccc(O)c(O)c1)NCCc1ccc(O)c(O)c1 [Compound 16, 4,4′-Diselenobis{N-[2′’-(3′’’,4′’’-dihydroxyphenyl)ethyl]butanamide}] | 3 ± 0.2
N#C[Se]Cc1ccc2c(c1)OCO2 [Compound 35, (3′,4′-Methylenedioxyphenyl)methyl selenocyanate] | 4.4 ± 0.5

Tested on: HBL-100 (breast)
Assay: Antiproliferative activity, NCI protocol
Type: cell-based, human
Details: Homo sapiens, HBL-100; read-out: GI50 HBL-100 (Breast)
Procedure: as §1, §2

SMILES | GI50 [µM]
O=C(CCCSSCCCC(=O)NCCc1ccc(O)c(O)c1)NCCc1ccc(O)c(O)c1 [Compound 10] | > 100
O=C(CCC[Se][Se]CCCC(=O)NCCc1ccc(O)c(O)c1)NCCc1ccc(O)c(O)c1 [Compound 16, 4,4′-Diselenobis{N-[2′’-(3′’’,4′’’-dihydroxyphenyl)ethyl]butanamide}] | 2.4 ± 0.6
N#C[Se]Cc1ccc2c(c1)OCO2 [Compound 35, (3′,4′-Methylenedioxyphenyl)methyl selenocyanate] | 3.5 ± 1.4

Tested on: T-47D (breast)
Assay: Antiproliferative activity, NCI protocol
Type: cell-based, human
Details: Homo sapiens, T47D; drug resistant line; read-out: GI50 T-47D (Breast)
Procedure: as §1, §2

SMILES | GI50 [µM]
O=C(CCCSSCCCC(=O)NCCc1ccc(O)c(O)c1)NCCc1ccc(O)c(O)c1 [Compound 10] | > 100
O=C(CCC[Se][Se]CCCC(=O)NCCc1ccc(O)c(O)c1)NCCc1ccc(O)c(O)c1 [Compound 16, 4,4′-Diselenobis{N-[2′’-(3′’’,4′’’-dihydroxyphenyl)ethyl]butanamide}] | 5.8 ± 0.9
N#C[Se]Cc1ccc2c(c1)OCO2 [Compound 35, (3′,4′-Methylenedioxyphenyl)methyl selenocyanate] | 3.4 ± 0.2

Tested on: A549 (non-small cell lung)
Assay: Antiproliferative activity, NCI protocol
Type: cell-based, human
Details: Homo sapiens, A549; read-out: GI50 A549 (Lung)
Procedure: as §1, §2

SMILES | GI50 [µM]
O=C(CCCSSCCCC(=O)NCCc1ccc(O)c(O)c1)NCCc1ccc(O)c(O)c1 [Compound 10] | > 100
O=C(CCC[Se][Se]CCCC(=O)NCCc1ccc(O)c(O)c1)NCCc1ccc(O)c(O)c1 [Compound 16, 4,4′-Diselenobis{N-[2′’-(3′’’,4′’’-dihydroxyphenyl)ethyl]butanamide}] | 3.7 ± 0.6
N#C[Se]Cc1ccc2c(c1)OCO2 [Compound 35, (3′,4′-Methylenedioxyphenyl)methyl selenocyanate] | 3.1 ± 0.7

Tested on: HeLa (cervix)
Assay: Antiproliferative activity, NCI protocol
Type: cell-based, human
Details: Homo sapiens, HeLa; read-out: GI50 HeLa (Cervix)
Procedure: as §1, §2

SMILES | GI50 [µM]
O=C(CCCSSCCCC(=O)NCCc1ccc(O)c(O)c1)NCCc1ccc(O)c(O)c1 [Compound 10] | > 100
O=C(CCC[Se][Se]CCCC(=O)NCCc1ccc(O)c(O)c1)NCCc1ccc(O)c(O)c1 [Compound 16, 4,4′-Diselenobis{N-[2′’-(3′’’,4′’’-dihydroxyphenyl)ethyl]butanamide}] | 2.3 ± 0.4
N#C[Se]Cc1ccc2c(c1)OCO2 [Compound 35, (3′,4′-Methylenedioxyphenyl)methyl selenocyanate] | 3.5 ± 0.8

Tested on: six human tumour cell lines (A549, HBL-100, HeLa, SW1573, T-47D, WiDr)
Assay: Antiproliferative activity, panel of six human tumour cell lines
Type: cell-based
Details: Homo sapiens; summary over the tested tumour cell lines; highest tested concentration 100 µM; read-out: GI50 over the tumour cell lines (range, bound or words)
Procedure: as §1, §2

SMILES | GI50 [µM]
O=C(CCC[Se][Se]CCCC(=O)NCCc1ccc(O)c(O)c1)NCCc1ccc(O)c(O)c1 [Compound 16, 4,4′-Diselenobis{N-[2′’-(3′’’,4′’’-dihydroxyphenyl)ethyl]butanamide}] | < 6

Same assay, conditions: summary over the tested tumour cell lines; highest tested concentration 100 µM

SMILES | GI50 over the tumour cell lines (range, bound or words)
O=C(CCCSSCCCC(=O)NCCc1ccc(O)c(O)c1)NCCc1ccc(O)c(O)c1 [Compound 10] | negligible activities
N#C[Se]Cc1ccc2c(c1)OCO2 [Compound 35, (3′,4′-Methylenedioxyphenyl)methyl selenocyanate] | low micromolar‒submicromolar activities

Tested on: SW1573
Assay: P-glycoprotein assay, wild type line
Type: cell-based
Details: Homo sapiens, 48 h exposure, with verapamil, read-out: GI50 SW153 w Verapamil
Procedure: (§3) This assay allows prediction of whether a certain chemotherapeutic agent could develop chemoresistance when behaving as a P-gp substrate, one of the most common efllux-pumps used for the extrusion of cell xenobiotics. For that purpose, a cell line-based assay was used, in particular the lung cancer cell line in its wild type (SW1573), and its variant overexpressing P-gp (Sw1573/Pgp). Moreover, compounds were tested in the presence and in the absence of verapamil, which is known to inhibit P-gp. Chemotherapeutic agents paclitaxel (PTX) and vinblastine (VB) are used herein as reference compounds. In this assay, the resistance factor (Rf) for a certain compound is defined as the ratio of GI50 in the cell line overexpressing P-gp and the wild one (Table 4), high values of Rf denoting that the compound behaves as a P-gp substrate, and thus, chemoresistance through this mechanism will probably take place.

SMILES | GI50 [µM]
O=C(CCC[Se][Se]CCCC(=O)NCCc1ccc(O)c(O)c1)NCCc1ccc(O)c(O)c1 [Compound 16, 4,4′-Diselenobis{N-[2′’-(3′’’,4′’’-dihydroxyphenyl)ethyl]butanamide}] | 2.3 ± 0.3
N#C[Se]Cc1ccc2c(c1)OCO2 [Compound 35, (3′,4′-Methylenedioxyphenyl)methyl selenocyanate] | 3.1 ± 1

Same assay, conditions: Homo sapiens, 48 h exposure, without verapamil, read-out: GI50 SW1573 w/o Verapamil

SMILES | GI50 [µM]
O=C(CCC[Se][Se]CCCC(=O)NCCc1ccc(O)c(O)c1)NCCc1ccc(O)c(O)c1 [Compound 16, 4,4′-Diselenobis{N-[2′’-(3′’’,4′’’-dihydroxyphenyl)ethyl]butanamide}] | 2.7 ± 0.3
N#C[Se]Cc1ccc2c(c1)OCO2 [Compound 35, (3′,4′-Methylenedioxyphenyl)methyl selenocyanate] | 2.3 ± 0.5

Tested on: not listed separately
Assay: P-glycoprotein assay, line overexpressing P-gp
Type: cell-based, human
Details: human, with verapamil (concentration not stated); 48 h exposure, with verapamil; read-out: GI50 SW1573/PGP w Verapamil
Procedure: as §3

SMILES | GI50 at 48 h [µM]
O=C(CCC[Se][Se]CCCC(=O)NCCc1ccc(O)c(O)c1)NCCc1ccc(O)c(O)c1 [Compound 16, 4,4′-Diselenobis{N-[2′’-(3′’’,4′’’-dihydroxyphenyl)ethyl]butanamide}] | 5.1 ± 0.4
N#C[Se]Cc1ccc2c(c1)OCO2 [Compound 35, (3′,4′-Methylenedioxyphenyl)methyl selenocyanate] | 7 ± 0.6

Same assay, conditions: human; 48 h exposure, without verapamil; read-out: GI50 SW1573/PGP w/o Verapamil

SMILES | GI50 at 48 h [µM]
O=C(CCC[Se][Se]CCCC(=O)NCCc1ccc(O)c(O)c1)NCCc1ccc(O)c(O)c1 [Compound 16, 4,4′-Diselenobis{N-[2′’-(3′’’,4′’’-dihydroxyphenyl)ethyl]butanamide}] | 5.1 ± 0.6
N#C[Se]Cc1ccc2c(c1)OCO2 [Compound 35, (3′,4′-Methylenedioxyphenyl)methyl selenocyanate] | 7.1 ± 0.6

Tested on: SW1573/Pgp
Assay: P-glycoprotein assay, line overexpressing P-gp
Type: cell-based, human
Details: ratio between GI50 values in SW1573/PGP and SW1573 cells, with verapamil
Procedure: as §3

SMILES | Rf w Verapamil
O=C(CCC[Se][Se]CCCC(=O)NCCc1ccc(O)c(O)c1)NCCc1ccc(O)c(O)c1 [Compound 16, 4,4′-Diselenobis{N-[2′’-(3′’’,4′’’-dihydroxyphenyl)ethyl]butanamide}] | 2.2
N#C[Se]Cc1ccc2c(c1)OCO2 [Compound 35, (3′,4′-Methylenedioxyphenyl)methyl selenocyanate] | 2.3

Same assay, conditions: ratio between GI50 values in SW1573/PGP and SW1573 cells, without verapamil

SMILES | Rf w/o Verapamil
O=C(CCC[Se][Se]CCCC(=O)NCCc1ccc(O)c(O)c1)NCCc1ccc(O)c(O)c1 [Compound 16, 4,4′-Diselenobis{N-[2′’-(3′’’,4′’’-dihydroxyphenyl)ethyl]butanamide}] | 1.9
N#C[Se]Cc1ccc2c(c1)OCO2 [Compound 35, (3′,4′-Methylenedioxyphenyl)methyl selenocyanate] | 3.1

Tested on: not listed separately
Assay: H2O2 scavenging (phenol red / horseradish peroxidase)
Details: At 50 µM
Procedure: (§4) In vitro antioxidant properties of key unprotected phenolic derivatives were analyzed using two different methodologies: free radical scavenging capacity, using the DPPH method (2,2-diphenyl-1-picrylhydrazyl), a HAT (hydrogen atom transfer) procedure, widely-used for both natural and synthetic derivatives, and also the capacity for scavenging H2O2, one of the most common ROS in degenerative diseases, including cancer.
Herein, following Bahorun’s methodology, in vitro levels of H2O2 were measured in an indirect fashion, by registering the H2O2-mediated oxidation of phenol red in the presence of horseradish peroxidase, to give a chromophore with a maximum absorption at 610 nm. Accordingly, in the presence of an antioxidant agent, there is an inverse correlation between the observed absorbance, and the scavenging properties. Table 2 depicts the H2O2-scavenging properties of compounds prepared herein, and tested at a final 50 µM concentration.
Reported methodology was used with minor modifications.

SMILES | % Scavenging of H2O2 [%]
O=C(CCCSSCCCC(=O)NCCc1ccc(O)c(O)c1)NCCc1ccc(O)c(O)c1 [Compound 10] | 11.8 ± 0.5

Tested on: BJ-hTert (fibroblasts)
Assay: Antiproliferative activity on non-tumour cells, NCI protocol
Type: cell-based, human
Details: Homo sapiens, Fibroblast; non-tumour cell line; read-out: GI50 BJ-hTert (Fibroblasts)
Procedure: as §1, §2

SMILES | GI50 [µM]
O=C(CCC[Se][Se]CCCC(=O)NCCc1ccc(O)c(O)c1)NCCc1ccc(O)c(O)c1 [Compound 16, 4,4′-Diselenobis{N-[2′’-(3′’’,4′’’-dihydroxyphenyl)ethyl]butanamide}] | 3.5 ± 0.6
N#C[Se]Cc1ccc2c(c1)OCO2 [Compound 35, (3′,4′-Methylenedioxyphenyl)methyl selenocyanate] | 8.7 ± 3.2

Tested on: not listed separately
Assay: Free radical scavenging (DPPH method)
Details: 30 min incubation, absorbance at 515 nm, read-out: EC50 antiradical activity (DPPH)
Procedure: as §4
DPPH is a commercially-available stable free radical commonly used for in vitro testing of radical scavenging properties of antioxidants.
Reported methodology was used with minor modifications. To a 60 µM methanolic DPPH solution (1.17 mL), the antioxidant solution (5–7 different solutions, 30 µL) or solvent (control, 30 µL) were added. After 30 min. of incubation in the dark, absorbance was measured at 515 nm, and EC50 values were calculated.

SMILES | EC50 [µM]
O=C(CCCSSCCCC(=O)NCCc1ccc(O)c(O)c1)NCCc1ccc(O)c(O)c1 [Compound 10] | 15.3 ± 0.1
O=C(CCC[Se][Se]CCCC(=O)NCCc1ccc(O)c(O)c1)NCCc1ccc(O)c(O)c1 [Compound 16, 4,4′-Diselenobis{N-[2′’-(3′’’,4′’’-dihydroxyphenyl)ethyl]butanamide}] | 9.3 ± 1.3
